Assay results taken from ChEMBL document CHEMBL1135144, “N-(pyrimidin-4-yl) and N-(pyridin-2-yl) phenylalanine derivatives as VLA-4 integrin antagonists” (Bioorg Med Chem Lett, 2002).

Assay: Compound was evaluated for rate of clearance in IPRL (Isolated Perfused Rat Liver)
Assay type: ADME

| SMILES | k el |
| --- | --- |
| O=C(Nc1ccc(C[C@H](Nc2cc(S(=O)(=O)Cc3ccccc3)ncn2)C(=O)O)cc1)c1c(Cl)cncc1Cl | 0.00144 s⁻¹ |
| CCCS(=O)(=O)c1ccnc(NC(Cc2ccc(NC(=O)c3c(Cl)cncc3Cl)cc2)C(=O)O)c1 (centres undefined) | 0.00144 s⁻¹ |
| O=C(Nc1ccc(C[C@H](Nc2cc(Cc3ccccc3)ncn2)C(=O)O)cc1)c1c(Cl)cncc1Cl | 0.00178 s⁻¹ |
| CCCS(=O)(=O)c1nc(C)cc(N[C@@H](Cc2ccc(NC(=O)c3c(Cl)cncc3Cl)cc2)C(=O)O)n1 | 0.00181 s⁻¹ |
| CCCS(=O)(=O)c1cc(NC(Cc2ccc(NC(=O)c3c(Cl)cncc3Cl)cc2)C(=O)O)ncc1C(=O)O (centres undefined) | 5.56e-05 s⁻¹ |
| CS(=O)(=O)c1cc(N[C@@H](Cc2ccc(NC(=O)c3c(Cl)cncc3Cl)cc2)C(=O)O)ncn1 | 0.00111 s⁻¹ |
| CCCCCCS(=O)(=O)c1nc(N[C@@H](Cc2ccc(NC(=O)c3c(Cl)cncc3Cl)cc2)C(=O)O)cc(C(=O)O)n1 | 0.000861 s⁻¹ |
| CCCS(=O)(=O)c1nc(N[C@@H](Cc2ccc(NC(=O)c3c(Cl)cncc3Cl)cc2)C(=O)O)cc(OC)n1 | 0.00156 s⁻¹ |
| CSc1ncc(C(=O)O)c(N[C@@H](Cc2ccc(NC(=O)c3c(Cl)cncc3Cl)cc2)C(=O)O)n1 | 0.000361 s⁻¹ |
| CC(C)CS(=O)(=O)c1nc(N[C@@H](Cc2ccc(NC(=O)c3c(Cl)cncc3Cl)cc2)C(=O)O)cc(C(=O)O)n1 | 0.00164 s⁻¹ |
| O=C(Nc1ccc(CC(Nc2ccc(Cl)cn2)C(=O)O)cc1)c1c(Cl)cncc1Cl (centres undefined) | 5.56e-05 s⁻¹ |
| O=C(Nc1ccc(C[C@H](Nc2cc(Oc3ccccc3)ncn2)C(=O)O)cc1)c1c(Cl)cncc1Cl | 0.000861 s⁻¹ |
| COc1cc(N[C@@H](Cc2ccc(NC(=O)c3c(Cl)cncc3Cl)cc2)C(=O)O)nc(S(C)(=O)=O)n1 | 0.00136 s⁻¹ |
| CCCS(=O)(=O)c1cc(NC(Cc2ccc(NC(=O)c3c(Cl)cncc3Cl)cc2)C(=O)O)ncc1Cl (centres undefined) | 0.000583 s⁻¹ |
| CCC[S+]([O-])c1cc(NC(Cc2ccc(NC(=O)c3c(Cl)cncc3Cl)cc2)C(=O)O)ncc1Cl (centres undefined) | 0.00128 s⁻¹ |
| CCCS(=O)(=O)c1nc(N[C@@H](Cc2ccc(NC(=O)c3c(Cl)cncc3Cl)cc2)C(=O)O)cc(C(=O)O)n1 | 0.00025 s⁻¹ |
| CCCS(=O)(=O)c1cc(N[C@@H](Cc2ccc(NC(=O)c3c(Cl)cncc3Cl)cc2)C(=O)O)ncn1 | 0.00122 s⁻¹ |
| CCC[S+]([O-])c1cc(N[C@@H](Cc2ccc(NC(=O)c3c(Cl)cncc3Cl)cc2)C(=O)O)ncn1 (some centres undefined) | 0.00119 s⁻¹ |
| CCCS(=O)(=O)c1nccc(N[C@@H](Cc2ccc(NC(=O)c3c(Cl)cncc3Cl)cc2)C(=O)O)n1 | 0.00122 s⁻¹ |
